Measured values from paper PMC12508057, “Discovery of ETI41 and ETI60: novel selective endosomal Toll-like receptor inhibitors for the treatment of autoimmune diseases” (Experimental & Molecular Medicine, 2025).

Tests used:
hTLR7 = target: T1, hTLR7 (Homo sapiens, UniProt Q9NYK1); experiment: TLR7 inhibition, R848-induced hTNFα in Daudi; type: cell-based
T1 construct: human B lymphoblasts (Daudi cells); endogenous in cells; host or cells: Daudi
Procedure: RAW 264.7 and differentiated THP-1 cells were seeded into 96-well plates at 2 × 10^4 cells per well, while Daudi cells were seeded at 5 × 10^4 cells per well. After stabilization for 30 min, cells were stimulated with specific TLR agonists for 4 or 24 h. Supernatants were diluted and transferred to precoated ELISA plates to measure TNF-α secretion using kits from Invitrogen. Optical absorbance was measured using a BioTek Synergy HTX multimode microplate reader, and data were interpolated using BioTek Gen5 software.
One-tailed paired Student’s t-tests were performed using Microsoft Excel (Microsoft). Semi-logarithmic conversions and nonregression curve analyses for calculating 50% lethal concentration (LC50) and 50% inhibitory concentration (IC50) values were conducted using GraphPad Prism 7.0 (GraphPad). The therapeutic index was calculated as […]. Animal experimental results are expressed as mean ± standard deviation and analyzed using SPSS v.20 (IBM SPSS Statistics). Homogeneity of variance was assessed using Levene’s test.
[…] Data are from at least three independent experiments (n = 3) and statistical differences between the induced case and other cases were analyzed and verified using a one-tailed Student’s t-test (*P < 0.05, **P < 0.01, ***P < 0.001).

TLR9 = experiment: FACS analysis of FAM-labeled CpG-ODN uptake and retention; type: cell-based; conditions: for Endocytosis of CpG ODNs: 30-min treatment with labeled CpG ODNs
Procedure: RAW 264.7 cells were seeded into 60-mm dishes at 2 × 10^6 cells per dish. After 30 min of treatment with ETI41 or ETI60, cells were incubated with 1 μM of 3’-FAM-labeled ODN 2395 (Bioneer Inc.) for 30 min. Fluorescence intensity was measured using a NovoCyte Flow Cytometer (Agilent Technologies) and analyzed using NovoExpress software.
Fig. 3 Binding mechanism of ETI41 and ETI60 with TLR7 and TLR9. a ETI41 and ETI60 bind to the extracellular domain of TLR7. b Detailed intermolecular interactions ofETI41 and ETI60 are shown with the key residues of TLR7. c ETI41 and ETI60 bind to the extracellular domain of TLR9. d Intermolecular interactions of ETI41 and ETI60 with the key residues of TLR9. The asterisk indicates chain A of TLR7 and TLR9. ETI41 and ETI60 are depicted in ball-and-stick models. Bonds are represented by lines, with distances measured in ångström (Å) units. […] Data presented are from three independent experiments (n = 3), and statistical differences between the induced case and other cases were analyzed and verified using a one-tailed Student’s t-test (*P < 0.05, **P < 0.01, ***P < 0.001). TEXT PRINTED IN THE PICTURE: (f) ETI41: ODN-Fm (30min): Q3-1 0.00%; ODN-Fm (30min): Q3-2 0.00%; ODN-Fm (30min): Q3-3 10.75%; ODN-Fm (30min): Q3-4 89.25%; ODN-Fm (30min) → Washing → Incubation (1h): Q3-1 0.00%; ODN-Fm (30min) → Washing → Incubation (1h): Q3-2 0.00%; ODN-Fm (30min) → Washing → Incubation (1h): Q3-3 40.96%; ODN-Fm (30min) → Washing → Incubation (1h): Q3-4 59.04% | (f) ETI60: ODN-Fm (30min): Q3-1 0.00%; ODN-Fm (30min): Q3-2 0.00%; ODN-Fm (30min): Q3-3 12.80%; ODN-Fm (30min): Q3-4 87.20%; ODN-Fm (30min) → Washing → Incubation (1h): Q3-1 0.00%; ODN-Fm (30min) → Washing → Incubation (1h): Q3-2 0.00%; ODN-Fm (30min) → Washing → Incubation (1h): Q3-3 56.37%; ODN-Fm (30min) → Washing → Incubation (1h): Q3-4 43.63% DOUBTS OF THE COPYIST ABOUT THIS PICTURE: Panel f, very small print: the digits 3, 5, 6, 8 and 9 cannot be told apart with certainty in any quadrant percentage. / ETI41, ODN-Fm (30min): Q3-3 10.75% and Q3-4 89.25% are best readings / ETI60, ODN-Fm (30min): Q3-3 12.80% and Q3-4 87.20% are best readings / ETI41, Washing/Incubation (1h): Q3-3 40.96% and Q3-4 59.04% are best readings / ETI60, Washing/Incubation (1h): Q3-3 56.37% and Q3-4 43.63% are best readings / Panel f: the control plots ('Con' and '-') also print quadrant percentages. They are left out because they are not substance results.
FACS analysis further validated the binding of ETI41 and ETI60. Unmethylated CpG ODNs, acting as ligands for TLR9, were fluorescently labeled, and their cellular penetration was monitored.

T1 sequence (Q9NYK1 27-1049): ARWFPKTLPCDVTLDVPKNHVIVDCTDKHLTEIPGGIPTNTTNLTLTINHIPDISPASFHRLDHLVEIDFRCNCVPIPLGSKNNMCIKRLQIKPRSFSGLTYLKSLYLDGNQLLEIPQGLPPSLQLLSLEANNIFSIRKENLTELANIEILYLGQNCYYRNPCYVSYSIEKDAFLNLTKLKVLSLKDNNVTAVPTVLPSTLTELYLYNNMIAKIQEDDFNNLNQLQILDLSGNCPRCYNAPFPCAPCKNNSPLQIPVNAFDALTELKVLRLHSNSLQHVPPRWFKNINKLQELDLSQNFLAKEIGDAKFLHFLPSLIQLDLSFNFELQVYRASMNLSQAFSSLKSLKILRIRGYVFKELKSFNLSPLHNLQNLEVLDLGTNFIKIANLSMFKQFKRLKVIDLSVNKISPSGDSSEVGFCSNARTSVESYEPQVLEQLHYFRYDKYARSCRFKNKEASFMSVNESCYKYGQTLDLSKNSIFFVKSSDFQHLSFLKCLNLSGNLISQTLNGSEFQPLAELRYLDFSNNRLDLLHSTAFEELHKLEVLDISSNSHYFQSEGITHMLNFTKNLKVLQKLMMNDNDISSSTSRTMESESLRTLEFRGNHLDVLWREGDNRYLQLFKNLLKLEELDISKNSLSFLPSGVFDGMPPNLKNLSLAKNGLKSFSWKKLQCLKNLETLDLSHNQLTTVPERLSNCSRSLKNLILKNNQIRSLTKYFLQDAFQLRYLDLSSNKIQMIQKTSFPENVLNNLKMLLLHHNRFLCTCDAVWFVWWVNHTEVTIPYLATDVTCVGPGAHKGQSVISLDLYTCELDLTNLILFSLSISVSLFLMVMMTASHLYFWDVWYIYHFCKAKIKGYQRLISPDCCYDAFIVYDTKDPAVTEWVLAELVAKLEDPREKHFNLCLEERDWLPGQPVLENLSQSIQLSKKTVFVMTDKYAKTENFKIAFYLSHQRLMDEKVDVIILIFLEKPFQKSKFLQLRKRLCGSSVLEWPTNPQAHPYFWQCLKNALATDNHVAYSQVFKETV

| SMILES | IC50 (hTLR7) [µM] | Endocytosis of CpG ODNs (TLR9) | Fluorescence intensity of labeled CpG ODN after washing (TLR9) |
| --- | --- | --- | --- |
| Cc1cc2c(N)c3c(nc2n1CCCN(C)C)CCCCCC3 [ETI41] | 0.947 | did not interfere with endocytosis | reduction in fluorescence intensity |
| COc1ccc2c3c(N)c4c(nc3n(CCCN(C)C)c2c1)CCCC4 [ETI60] | 0.668 | did not interfere with endocytosis | reduction in fluorescence intensity |
